From the Kinase Knowledgebase extract (Sharma et al. 2016)

Molecular target: MAPK14 (human) (UniProt Q16539)
Experiment: Enzyme Assay

MAPK14 (human), sequence (Q16539 whole entry, looked up): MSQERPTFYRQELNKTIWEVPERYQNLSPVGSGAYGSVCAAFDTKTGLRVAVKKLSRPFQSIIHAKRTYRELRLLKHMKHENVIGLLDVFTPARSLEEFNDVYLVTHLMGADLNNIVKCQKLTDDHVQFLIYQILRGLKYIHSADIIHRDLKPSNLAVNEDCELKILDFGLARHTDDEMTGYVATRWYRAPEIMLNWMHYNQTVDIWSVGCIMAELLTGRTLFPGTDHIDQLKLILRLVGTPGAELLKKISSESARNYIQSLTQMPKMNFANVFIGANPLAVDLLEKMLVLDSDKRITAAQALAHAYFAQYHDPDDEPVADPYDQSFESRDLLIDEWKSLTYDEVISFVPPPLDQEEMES

IC50, < 10 nM:
CCN(C)CCc1cccc(-n2nc(C(C)(C)C)cc2NC(=O)N[C@H]2CC[C@@H](Oc3ccc4nnc(N5CCCC[C@@H]5C)n4c3)c3ccccc32)c1
CN(C)CCOc1cccc(-n2nc(C(C)(C)C)cc2NC(=O)N[C@H]2CC[C@@H](Oc3ccc4nnc(N5CCCCC56CC6)n4c3)c3ccccc32)c1
Cc1ccc(-n2nc(C(C)(C)C)cc2NC(=O)N[C@H]2CC[C@@H](Oc3ccc4nnc(N5CCCCCC5)n4c3)c3ccccc32)cc1
CC(C)(C)c1cc(NC(=O)N[C@H]2CC[C@@H](Oc3ccc4nnc(N5CCC(CO)CC5)n4c3)c3ccccc32)n(-c2ccc(CO)cc2)n1
Cc1ccc(-n2nc(C(C)(C)C)cc2NC(=O)N[C@H]2CC[C@@H](Oc3ccc4nnc(N5[C@H](C)CCC[C@@H]5C)n4c3)c3ccccc32)cc1
Cc1ccc(-n2nc(C(C)(C)C)cc2NC(=O)N[C@H]2CC[C@@H](Oc3ccc4nnc([C@@H]5CCCN5)n4c3)c3ccccc32)cc1
Cc1ccc(-n2nc(C(C)(C)C)cc2NC(=O)N[C@H]2CC[C@@H](Oc3ccc4nnc(N5CCC[C@H](CO)C5)n4c3)c3ccccc32)cc1
Cc1ccc(-n2nc(C(C)(C)C)cc2NC(=O)N[C@H]2CC[C@@H](Oc3ccc4nnc(C5CN(C)CCN5C)n4c3)c3ccccc32)cc1 (stereo partly drawn)
C[C@H]1CCCCN1c1nnc2ccc(O[C@@H]3CC[C@H](NC(=O)Nc4cc(C(C)(C)C)nn4-c4cccc(CCN5CCCCC5)c4)c4ccccc43)cn12
COC1CCN(Cc2cccc(-n3nc(C(C)(C)C)cc3NC(=O)N[C@H]3CC[C@@H](Oc4ccc5nnc(N6CCCC[C@@H]6C)n5c4)c4ccccc43)c2)CC1
Cc1ccc(-n2nc(C(C)(C)C)cc2NC(=O)N[C@H]2CC[C@@H](Oc3ccc4nnc(N(C)CCN5CCOCC5)n4c3)c3ccccc32)cc1
C[C@H]1CCCCN1c1nnc2ccc(O[C@@H]3CC[C@H](NC(=O)Nc4cc(C(C)(C)C)nn4-c4ccc(CN5CCC(F)CC5)cc4)c4ccccc43)cn12
Cc1ccc(-n2nc(C(C)(C)C)cc2NC(=O)N[C@H]2CC[C@@H](Oc3ccc(C#N)nc3)c3ccccc32)cc1
